From patent US20070128217A1 (priority 2003, published 2007)

What was measured:
[1] = test system: rabbit serum obtained by immunizing a rabbit with the SARS-CoV strain Frankfurt 1; assay type: binding; design: Binding of a rabbit serum to linear peptides / Binding of a rabbit serum to looped peptides / Rabbit serum linear peptides / Rabbit serum looped peptides / Binding of a rabbit serum to linear peptides of protein N of SARS-CoV Urbani (Rabbit serum linear peptides) / Binding of a rabbit serum to looped/cyclic peptides of protein N of SARS-CoV Urbani (Rabbit serum looped peptides): unit not given here
[2] = test system: control sera (pooled serum of ten healthy LUMC hospital workers; commercial negative donor pooled serum from the Dutch bloodbank); assay type: binding, human; design: Binding of Control serum LUMC to linear peptides / Binding of Control serum Blood-bank to linear peptides / Binding of Control serum LUMC to looped peptides / Binding of Control Serum Blood-Bank to Looped peptides / Binding of Control serum LUMC to linear peptides of the protein M of SARS-CoV Urbani / Binding of Control serum Blood-bank to linear peptides of the protein M of SARS-CoV Urbani / Binding of Control serum LUMC to looped peptides of the protein M of SARS-CoV Urbani / Binding of Control Serum Blood-Bank to Looped peptides of the protein M of SARS-CoV Urbani: unit not given here
[3] = test system: recombinant human anti-SARS-CoV antibody 03-018; assay type: binding; design: Binding of antibody 03-018 to linear peptides of the N protein of SARS-CoV Urbani / Binding of antibody 03-018 to looped/cyclic peptides of the N protein of SARS-CoV Urbani: unit not given here
[4] = test system: antibodies in sera from SARS patients (sera 1a, 1b, 2, 6, 37, 62, London, SARS-yellow, SARS-green); assay type: binding, human; design: Binding of serum 6 to linear peptides of protein X1 of SARS-CoV Urbani / Binding of serum 37 to linear peptides of protein X1 of SARS-CoV Urbani / Binding of serum 6 to looped/cyclic peptide (PEPSCAN-ELISA) / Binding of serum 37 to looped/cyclic peptide (PEPSCAN-ELISA) / Binding of serum 37 to looped/cyclic peptides of protein X1 of SARS-CoV Urbani / Binding of serum 6 to linear peptides of protein X2 / Binding of serum 37 to linear peptides of protein X2 / Binding of serum 37 to looped/cyclic peptides of protein X2 of SARS-CoV Urbani / Binding of serum 6 to linear peptides of protein M of SARS-CoV Urbani / Binding of serum 37 to linear peptides of protein M of SARS-CoV Urbani / Binding of serum 6 to looped/cyclic peptides of protein M of SARS-CoV Urbani / Binding of serum 37 to looped/cyclic peptides of protein M of SARS-CoV Urbani / Binding of serum 6 to linear peptides of protein X3 of SARS-CoV Urbani / Binding of serum 37 to linear peptides of protein X3 of SARS-CoV Urbani / Binding of serum 37 to looped/cyclic peptides of protein X3 of SARS-CoV Urbani / Binding of serum 6 to linear peptides of protein X4 of SARS-CoV Urbani / Binding of serum 37 to linear peptides of protein X4 of SARS-CoV Urbani / Binding of serum 37 to looped/cyclic peptides of protein X4 of SARS-CoV Urbani / Binding of serum 6 to linear peptides of protein X5 of SARS-CoV Urbani / Binding of serum 37 to linear peptides of protein X5 of SARS-CoV Urbani / Binding of serum 37 to looped/cyclic peptides of protein X5 of SARS-CoV Urbani / Binding of serum 6 to linear peptides of protein N of SARS-CoV Urbani / Binding of serum 37 to linear peptides of protein N of SARS-CoV Urbani / Binding of serum 6 to linear peptide (PEPSCAN-ELISA) / Binding of serum 1a to looped/cyclic peptides of protein N of SARS-CoV Urbani / Binding of serum 1b to looped/cyclic peptides of protein N of SARS-CoV Urbani / Binding of serum 2 to looped/cyclic peptides of protein N of SARS-CoV Urbani / Binding of serum 6 to looped/cyclic peptides of protein N of SARS-CoV Urbani / Binding of serum 37 to looped/cyclic peptides of protein N of SARS-CoV Urbani / Binding of serum 62 to looped/cyclic peptides of protein N of SARS-CoV Urbani / Binding of serum London to looped/cyclic peptides of protein N of SARS-CoV Urbani / Binding of serum SARS-green to looped/cyclic peptides of protein N of SARS-CoV Urbani: unit not given here

TVTLLPAADMDDFSR was tested, and the “Binding of a rabbit serum to linear peptides of protein N of SARS-CoV Urbani (Rabbit serum linear peptides)” value (shortened to “Binding … (Rabbit serum linear peptides)”) [1] was 0.1, the “Binding of a rabbit serum to looped/cyclic peptides of protein N of SARS-CoV Urbani (Rabbit serum looped peptides)” value [1] was 0.3 and the “Control Serum Blood-Bank Looped peptides” value [2] was 0.3. The “Control serum Blood-bank linear peptides” value [2] was 0.6, the “Control serum LUMC linear peptides” value [2] was 0.6 and the “Control serum LUMC looped peptides” value [2] was 0.3. For the same sequence, the “Binding of antibody 03-018 to linear peptides of the N protein of SARS-CoV Urbani” value [3] was 0.1, the “Binding of antibody 03-018 to looped/cyclic peptides of the N protein of SARS-CoV Urbani” value [3] was 0.2 and the “Binding of serum 1a to linear peptides of protein N of SARS-CoV Urbani” value [4] was 0.2. For the same sequence, the “Binding of serum 1a to looped/cyclic peptides of protein N of SARS-CoV Urbani” value [4] was 0.3, the “Binding of serum 1b to linear peptides of protein N of SARS-CoV Urbani” value [4] was 0.1 and the “Binding of serum 1b to looped/cyclic peptides of protein N of SARS-CoV Urbani” value [4] was 0.2. The “Binding of serum 2 to linear peptides of protein N of SARS-CoV Urbani” value [4] was 0.1, the “Binding of serum 2 to looped/cyclic peptides of protein N of SARS-CoV Urbani” value [4] was 0.2 and the “Binding of serum 6 to linear peptides of protein N of SARS-CoV Urbani” value [4] was 0.2. For the same sequence, the “Binding of serum 6 to looped/cyclic peptides of protein N of SARS-CoV Urbani” value [4] was 0.0, the “Binding of serum 37 to linear peptides of protein N of SARS-CoV Urbani” value [4] was 0.7 and the “Binding of serum 37 to looped/cyclic peptides of protein N of SARS-CoV Urbani” value [4] was 0.4. For the same sequence, the “Binding of serum 62 to linear peptides of protein N of SARS-CoV Urbani” value [4] was 0.5, the “Binding of serum 62 to looped/cyclic peptides of protein N of SARS-CoV Urbani” value [4] was 0.1 and the “Binding of serum London to linear peptides of protein N of SARS-CoV Urbani” value [4] was 0.5. For the same sequence, the “Binding of serum London to looped/cyclic peptides of protein N of SARS-CoV Urbani” value [4] was 0.2, the “Binding of serum SARS-green to linear peptides of protein N of SARS-CoV Urbani” value [4] was 0.3 and the “Binding of serum SARS-green to looped/cyclic peptides of protein N of SARS-CoV Urbani” value [4] was 0.5. The “Binding of serum SARS-yellow to linear peptides of protein N of SARS-CoV Urbani” value [4] was 0.5 and the “Binding of serum SARS-yellow to looped/cyclic peptides of protein N of SARS-CoV Urbani” value [4] was 0.2.
With TWLTYHGAIKLDDKD the “Binding … (Rabbit serum linear peptides)” value [1] was 0.1, the “Binding of a rabbit serum to looped/cyclic peptides of protein N of SARS-CoV Urbani (Rabbit serum looped peptides)” value [1] was 0.3 and the “Control Serum Blood-Bank Looped peptides” value [2] was 0.4. For the same sequence, the “Control serum Blood-bank linear peptides” value [2] was 0.6, the “Control serum LUMC linear peptides” value [2] was 0.6 and the “Control serum LUMC looped peptides” value [2] was 0.4. For the same sequence, the “Binding of antibody 03-018 to linear peptides of the N protein of SARS-CoV Urbani” value [3] was 0.1, the “Binding of antibody 03-018 to looped/cyclic peptides of the N protein of SARS-CoV Urbani” value [3] was 0.2 and the “Binding of serum 1a to linear peptides of protein N of SARS-CoV Urbani” value [4] was 0.2. The “Binding of serum 1a to looped/cyclic peptides of protein N of SARS-CoV Urbani” value [4] was 0.2, the “Binding of serum 1b to linear peptides of protein N of SARS-CoV Urbani” value [4] was 0.1 and the “Binding of serum 1b to looped/cyclic peptides of protein N of SARS-CoV Urbani” value [4] was 0.2. For the same sequence, the “Binding of serum 2 to linear peptides of protein N of SARS-CoV Urbani” value [4] was 0.1, the “Binding of serum 2 to looped/cyclic peptides of protein N of SARS-CoV Urbani” value [4] was 0.2 and the “Binding of serum 6 to linear peptides of protein N of SARS-CoV Urbani” value [4] was 0.2. The “Binding of serum 6 to looped/cyclic peptides of protein N of SARS-CoV Urbani” value [4] was 0.1, the “Binding of serum 37 to linear peptides of protein N of SARS-CoV Urbani” value [4] was 0.6 and the “Binding of serum 37 to looped/cyclic peptides of protein N of SARS-CoV Urbani” value [4] was 0.4. The “Binding of serum 62 to linear peptides of protein N of SARS-CoV Urbani” value [4] was 0.6, the “Binding of serum 62 to looped/cyclic peptides of protein N of SARS-CoV Urbani” value [4] was 0.3 and the “Binding of serum London to linear peptides of protein N of SARS-CoV Urbani” value [4] was 0.5. The “Binding of serum London to looped/cyclic peptides of protein N of SARS-CoV Urbani” value [4] was 0.2, the “Binding of serum SARS-green to linear peptides of protein N of SARS-CoV Urbani” value [4] was 0.3 and the “Binding of serum SARS-green to looped/cyclic peptides of protein N of SARS-CoV Urbani” value [4] was 0.3. The “Binding of serum SARS-yellow to linear peptides of protein N of SARS-CoV Urbani” value [4] was 0.6 and the “Binding of serum SARS-yellow to looped/cyclic peptides of protein N of SARS-CoV Urbani” value [4] was 0.3.
In the case of VRGGDGKMKELSPRW, the “Binding … (Rabbit serum linear peptides)” value [1] was 0.2, the “Binding of a rabbit serum to looped/cyclic peptides of protein N of SARS-CoV Urbani (Rabbit serum looped peptides)” value [1] was 0.4 and the “Binding of Control Serum Blood-Bank to Looped peptides” value [2] was 0.7. The “Binding of Control serum Blood-bank to linear peptides” value [2] was 0.6, the “Binding of Control serum LUMC to linear peptides” value [2] was 0.8 and the “Binding of Control serum LUMC to looped peptides” value [2] was 0.7. The “Binding of antibody 03-018 to linear peptides of the N protein of SARS-CoV Urbani” value [3] was 0.1, the “Binding of antibody 03-018 to looped/cyclic peptides of the N protein of SARS-CoV Urbani” value [3] was 0.2 and the “Binding of serum 1a to linear peptides of protein N of SARS-CoV Urbani” value [4] was 0.2. For the same sequence, the “Binding of serum 1a to looped/cyclic peptides of protein N of SARS-CoV Urbani” value [4] was 0.3, the “Binding of serum 1b to linear peptides of protein N of SARS-CoV Urbani” value [4] was 0.1 and the “Binding of serum 1b to looped/cyclic peptides of protein N of SARS-CoV Urbani” value [4] was 0.2. For the same sequence, the “Binding of serum 2 to linear peptides of protein N of SARS-CoV Urbani” value [4] was 0.2, the “Binding of serum 2 to looped/cyclic peptides of protein N of SARS-CoV Urbani” value [4] was 0.5 and the “Binding of serum 6 to linear peptides of protein N of SARS-CoV Urbani” value [4] was 0.2. For the same sequence, the “Binding of serum 6 to looped/cyclic peptides of protein N of SARS-CoV Urbani” value [4] was 0.2, the “Binding of serum 37 to linear peptides of protein N of SARS-CoV Urbani” value [4] was 0.6 and the “Binding of serum 37 to looped/cyclic peptides of protein N of SARS-CoV Urbani” value [4] was 0.6. The “Binding of serum 62 to linear peptides of protein N of SARS-CoV Urbani” value [4] was 0.6, the “Binding of serum 62 to looped/cyclic peptides of protein N of SARS-CoV Urbani” value [4] was 0.6 and the “Binding of serum London to linear peptides of protein N of SARS-CoV Urbani” value [4] was 0.4. For the same sequence, the “Binding of serum London to looped/cyclic peptides of protein N of SARS-CoV Urbani” value [4] was 0.5, the “Binding of serum SARS-green to linear peptides of protein N of SARS-CoV Urbani” value [4] was 0.4 and the “Binding of serum SARS-green to looped/cyclic peptides of protein N of SARS-CoV Urbani” value [4] was 0.1. The “Binding of serum SARS-yellow to linear peptides of protein N of SARS-CoV Urbani” value [4] was 0.7 and the “Binding of serum SARS-yellow to looped/cyclic peptides of protein N of SARS-CoV Urbani” value [4] was 0.3.
For VTKKSAAEASKKPRQ, the “Binding … (Rabbit serum linear peptides)” value [1] was 0.1, the “Binding of a rabbit serum to looped/cyclic peptides of protein N of SARS-CoV Urbani (Rabbit serum looped peptides)” value [1] was 0.6 and the “Binding of Control Serum Blood-Bank to Looped peptides” value [2] was 0.6. For the same sequence, the “Binding of Control serum Blood-bank to linear peptides” value [2] was 0.9, the “Binding of Control serum LUMC to linear peptides” value [2] was 0.9 and the “Binding of Control serum LUMC to looped peptides” value [2] was 0.7. The “Binding of antibody 03-018 to linear peptides of the N protein of SARS-CoV Urbani” value [3] was 0.1, the “Binding of antibody 03-018 to looped/cyclic peptides of the N protein of SARS-CoV Urbani” value [3] was 0.2 and the “Binding of serum 1a to looped/cyclic peptides of protein N of SARS-CoV Urbani” value [4] was 0.3. The “Binding of serum 1b to looped/cyclic peptides of protein N of SARS-CoV Urbani” value [4] was 0.2, the “Binding of serum 2 to looped/cyclic peptides of protein N of SARS-CoV Urbani” value [4] was 0.6 and the “Binding of serum 6 to looped/cyclic peptides of protein N of SARS-CoV Urbani” value [4] was 0.3. The “Binding of serum 37 to looped/cyclic peptides of protein N of SARS-CoV Urbani” value [4] was 0.6, the “Binding of serum 62 to looped/cyclic peptides of protein N of SARS-CoV Urbani” value [4] was 0.4 and the “Binding of serum London to looped/cyclic peptides of protein N of SARS-CoV Urbani” value [4] was 0.5. The “Binding of serum SARS-green to looped/cyclic peptides of protein N of SARS-CoV Urbani” value [4] was 0.6, the “Binding of serum SARS-yellow to looped/cyclic peptides of protein N of SARS-CoV Urbani” value [4] was 0.7 and the “Recognition of the peptide by sera of SARS-CoV infected individuals, and form (linear, looped/cyclic) in which it is recognized” value [4] was “recognized in linear form”.
